Values joined by “and” are separate entries in the source; they are usually repeats but may differ in a detail not shown here. Equal values may be shown once.
What was measured:
Type in all cases: physicochemical, human
[1] = GC/MS of blood plasma sample: time from blood collection to centrifugation (Table A); settings: for Increase or decrease: detection intensity; for Increase or decrease / Rate of increase or decrease: blood collection to centrifugation; for Rate of increase or decrease (second value, decrease) / Rate of increase or decrease (first value, increase): different from individual to individual, relative to 1 at 15 minutes, collection to centrifugation; for Rate of increase or decrease (second value, decrease): individuals with decrease; for Rate of increase or decrease (first value, increase): individuals with increase; for Rate of increase or decrease: detection intensity relative to 1 at 15 minutes
Summary of the method: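 EDTA blood from a healthy subject was cooled at 4° C, centrifuged at 4° C, 3000 rpm, 15 minutes, and plasma was frozen. After methoxymation and trimethylsilylation, samples ran on GC/MS (BPX5 column, 60-330° C gradient, electron ionization, MRM). Intensity is relative to 15 minutes from collection to centrifugation.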

[2] = GC/MS of blood plasma sample: time from blood collection to cooling of blood (Table B); parameters: key to Rate of increase or decrease / Rate of increase or decrease (first value, increase): detection intensity relative to 1 at cooling time ≤1 min; settings: for Increase or decrease: detection intensity, blood collection to cooling 5 minutes or more vs 1 minute or less; for Rate of increase or decrease (second value, decrease) / Rate of increase or decrease (first value, increase): different from individual to individual, relative to 1 at 1 minute or less, collection to cooling 5 minutes; for Rate of increase or decrease (second value, decrease): individuals with decrease; for Rate of increase or decrease (first value, increase): individuals with increase
Summary of the method: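 Blood drawn at room temperature into EDTA tubes, mixed, then cooled at 4° C. within 1 minute or less versus 5 minutes or more before centrifugation (4° C., 3000 rpm, 15 minutes). Plasma was frozen, methoxymated and trimethylsilylated, and analysed by EI GC/MS in MRM mode. Values are detection intensity relative to the ≤1 minute condition.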

[3] = GC/MS of blood plasma sample: number of times of freezing and thawing (Table C); settings: for Rate of increase or decrease: detection intensity relative to 1 at 2 times; for Increase or decrease: detection intensity
Summary of the method: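 EDTA plasma from a healthy subject, cooled within 1 min or after 5+ min, centrifuged 4 °C/3000 rpm/15 min, frozen, then freeze-thawed 2, 4, 6 or 10 times. Methoximated, trimethylsilylated samples run by GC/MS (BPX5 column, EI, MRM). Values are detection intensity relative to 2 freeze-thaw cycles set as 1.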

[4] = GC/MS of serum sample: time from blood collection to centrifugation (Table G); settings: blood collection to centrifugation; for Rate of increase or decrease: detection intensity relative to 1 at 15 minutes; for Increase or decrease: detection intensity
Summary of the method: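 Blood was held for varying times before centrifugation (room temperature, 3500 rpm, 5 min); serum was frozen, then methoxymated and trimethylsilylated for GC/MS with electron ionization in MRM mode. Values are detection intensities relative to the 15-minute collection-to-centrifugation condition, set as 1.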

[5] = GC/MS of serum sample: time from centrifugation to isolation (Table H); parameters: key to Rate of increase or decrease / Rate of increase or decrease (first value, increase): detection intensity relative to 1 at 30 min centrifugation-to-isolation; settings: for Rate of increase or decrease: detection intensity relative to 1 at 30 minutes, after 1 hour; for Increase or decrease: detection intensity, after 1 hour vs 30 minutes
Summary of the method: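 Blood was centrifuged at room temperature, 3500 rpm, 5 min, and the vessel left at room temperature for 30 min, 1 h or 6 h before serum isolation. Serum was methoxymated, trimethylsilylated and analysed by GC/MS with electron ionization in MRM mode; intensities expressed relative to the 30-min condition (=1).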

[6] = GC/MS of serum sample: number of times of freezing and thawing (Table I); parameters: key to Rate of increase or decrease / Rate of increase or decrease (first value, increase): detection intensity relative to 2 freeze-thaw cycles = 1; settings: for Rate of increase or decrease: detection intensity relative to 1 at 2 times; for Number of times when compound is affected: detection intensity changed by 30% or more vs 2 times of freezing and thawing
Summary of the method: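 Serum was isolated after centrifugation at room temperature (3500 rpm, 5 min), frozen, and put through 2, 4, 6 or 10 freeze–thaw cycles. Samples were methoxymated and trimethylsilylated, then run by electron-ionization GC/MS in MRM mode on a BPX5 column (60 to 330 °C). Detection intensity is given relative to the 2-cycle sample, set as 1.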

[7] = serum, GC/MS, freezing and thawing 4 times
[8] = detection intensity, serum, GC/MS, freezing and thawing 4 times vs 2 times
[9] = freezing and thawing 4 times vs 2 times
[10] = 10 times of freezing and thawing
[11] = serum sample, GC/MS, detection intensity vs 2 times of freezing and thawing

| Structure (SMILES) | Increase or decrease ([1]; after 4 hours vs 15 minutes) | Rate of increase or decrease (second value, decrease) ([1]; after 4 hours) | Rate of increase or decrease (first value, increase) ([1]; after 4 hours) | Increase or decrease [2] | Rate of increase or decrease (second value, decrease) [2] | Rate of increase or decrease (first value, increase) [2] | Rate of increase or decrease ([4]; after 4 hours) | Increase or decrease ([4]; after 4 hours vs 15 minutes) | Rate of increase or decrease [5] | Increase or decrease [5] | Rate of increase or decrease [6, 7] | Increase or decrease [6, 8] | Increase or decrease [3, 9] | Rate of increase or decrease ([4]; after 8 hours) | Increase or decrease ([4]; after 8 hours vs 15 minutes) | Rate of increase or decrease [6, 10] | Number of times when compound is affected ([6]; serum sample, GC/MS) | Increase or decrease [6, 11] | further results |
| --- | --- | --- | --- | --- | --- | --- | --- | --- | --- | --- | --- | --- | --- | --- | --- | --- | --- | --- | --- |
| O=C(O)/C=C\C(=O)O [Maleic acid] | Different from individual | 0.47 | 1.75 | Different from individual | 0.54 | 1.38 | 1.65 | Increase | 1.43 | Increase | 2.62 | Increase | – | – | – | – | – | – | Rate of increase or decrease ([3]; freezing and thawing 10 times): 2.12; Increase or decrease ([3]; freezing and thawing 10 times vs 2 times): Increase |
| O=C(CO)[C@H](O)[C@H](O)[C@H](O)CO [Psicose] | Increase | – | – | Different from individual | 0.43 and 0.27 | 3.24 and 1.94 | – | – | 0.57 | Decrease | 0.54 | Decrease | Different from individual | 0.65 | Decrease | – | – | – | Rate of increase or decrease ([1]; after 4 hours): 4.33; Rate of increase or decrease (second value, decrease) ([3]; different from individual to individual, individuals with decrease, relative to 1 at 2 times, freezing and thawing 4 times): 0.70; Rate of increase or decrease (first value, increase) ([3]; different from individual to individual, individuals with increase, relative to 1 at 2 times, freezing and thawing 4 times): 1.77; Rate of increase or decrease ([6]; serum, GC/MS, freezing and thawing 6 times): 1.30; Increase or decrease ([6]; detection intensity, serum, GC/MS, freezing and thawing 6 times vs 2 times): Increase |
| OC[C@H]1O[C@@](CO)(O[C@H]2O[C@H](CO)[C@@H](O)[C@H](O)[C@H]2O)[C@@H](O)[C@@H]1O [Sucrose] | Different from individual | 0.69 | 2.53 | Different from individual | 0.69 | 2.20 | 18.00 | Increase | 2.12 | Increase | – | – | Decrease | – | – | 0.64 | 10 times | Decrease | Rate of increase or decrease ([3]; freezing and thawing 4 times): 0.53 |
| OC[C@H]1O[C@H](O[C@H]2O[C@H](CO)[C@@H](O)[C@H](O)[C@H]2O)[C@H](O)[C@@H](O)[C@@H]1O [Trehalose] | – | – | – | Different from individual | 0.58 | 5.01 | – | – | 1.45 | Increase | – | – | – | 1.50 | Increase | 0.69 | 10 times | Decrease | Rate of increase or decrease ([1]; after 8 hours): 0.56; Increase or decrease ([1]; after 8 hours vs 15 minutes): Decrease; Rate of increase or decrease ([3]; freezing and thawing 6 times): 1.98; Increase or decrease ([3]; freezing and thawing 6 times vs 2 times): Increase |

From patent US20220146526A1, “METHOD FOR EVALUATING SAMPLE, ANALYSIS METHOD, METHOD FOR DETECTING DEGRADED SAMPLE, MARKER FOR DETECTING DEGRADED BLOOD PLASMA SAMPLE, AND MARKER FOR DETECTING DEGRADED SERUM SAMPLE” (SHIMADZU CORPORATION, priority 2019, published 2022)
